The results in this text go back to ChEMBL document CHEMBL3046921, “Synthesis of 3,5-disubstituted isoxazolines as protein tyrosine phosphatase 1B inhibitors” (Med Chem Res, 2008).

Experiment [1] has as its system Rattus norvegicus. Nature of the experiment: Antidiabetic activity in albino Rattus norvegicus Sprague-Dawley (rat) streptozotocin-induced diabetic model assessed as reduction of blood glucose level at 100 mg/kg, po after 5 hr. It counts as functional. On the set-up: scale not given: the % may be the effect or the level left.
Experiment [2] has as its target T1, Tyrosine-protein phosphatase non-receptor type 1 (Homo sapiens, UniProt P18031).
T1 sequence (P18031 whole entry): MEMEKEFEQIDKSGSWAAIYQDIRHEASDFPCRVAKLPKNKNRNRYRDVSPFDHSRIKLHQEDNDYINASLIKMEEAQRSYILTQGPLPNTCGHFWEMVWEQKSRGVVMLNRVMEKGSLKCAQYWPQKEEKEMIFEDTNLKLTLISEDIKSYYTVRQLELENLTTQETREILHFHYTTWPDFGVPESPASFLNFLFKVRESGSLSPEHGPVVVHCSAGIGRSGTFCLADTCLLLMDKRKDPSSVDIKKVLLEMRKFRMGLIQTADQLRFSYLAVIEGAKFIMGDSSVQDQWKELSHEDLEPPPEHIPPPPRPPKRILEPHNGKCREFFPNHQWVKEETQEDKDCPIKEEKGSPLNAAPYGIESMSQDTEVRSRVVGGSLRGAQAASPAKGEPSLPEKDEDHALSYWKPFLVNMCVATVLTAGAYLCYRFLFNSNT
Kind of experiment: Inhibition of PTP1B (unknown origin) using p-nitrophenylphosphate as substrate after 10 min.

Experiment [3] has as its target T2, Tyrosine-protein phosphatase non-receptor type 1 (Homo sapiens) (UniProt P18031).
T2 sequence (whole entry): T1 sequence (P18031 whole entry)
Kind of experiment: (§1) Inhibition of PTP1B (unknown origin) using p-nitrophenylphosphate as substrate at 100 uM after 10 min.

The subject of experiment [4] is Rattus norvegicus. Kind of experiment: Antidiabetic activity in albino Rattus norvegicus Sprague-Dawley (rat) streptozotocin-induced diabetic model assessed as reduction of blood glucose level at 100 mg/kg, po after 24 hr. In kind it is functional. On the set-up: scale not given: the % may be the effect or the level left.
Experiment [5] has as its target Tyrosine-protein phosphatase non-receptor type 1 (Homo sapiens) (UniProt P18031). Described as §1. The source holds these as a separate data set.

In the case of `COc1ccc(C2CC(c3ccc(OC)cc3OC)=NO2)cc1` (stereo unspecified), the Activity in the experiment with Rattus norvegicus [1] turned out to be 2.56%. In experiment [2], this compound showed an IC50 of 67 µM and an inhibition constant Ki of 48 µM. For the same compound, the inhibition in experiment [3] was determined as 65.8%. Besides, in the experiment with Rattus norvegicus [4], the Activity amounted to 12.2%.

Turning to `COc1c(C2=NOC(c3ccccc3)C2)ccc2occc12` (stereo unspecified), the IC50 in experiment [2] is 76 µM. In experiment [3], this compound returned an inhibition of 80.4%.

On to `COc1c(C2=NOC(c3ccccn3)C2)ccc2c1C=CC(C)(C)O2` (stereo unspecified), for which the inhibition in experiment [3] stood at 62.4%.

`COc1ccc(C2=NOC(c3ccccc3)C2)c(O)c1` (stereo unspecified) returned an inhibition in experiment [3] of 47.1%.

As for `COc1ccc(C2=NOC(c3ccccc3)C2)c(OC)c1` (stereo unspecified), the Activity in the experiment with Rattus norvegicus [1] came to 18%. In experiment [2], this compound returned an IC50 of 69 µM and a Ki of 48 µM. In experiment [3], this compound registered an inhibition of 88.5%. Besides, the Activity in the experiment on Rattus norvegicus [4] worked out at 19.7%.

The compound `Oc1ccc(C2=NOC(c3ccccc3)C2)c(O)c1` (stereo unspecified) came in with an inhibition in experiment [3] of 29.5%.

For SODIUM [sequence], the inhibition in experiment [5] stood at 56.2%.

In experiment [2], SODIUM HYDROXYTRIOXIDOVANADIUM registered an IC50 of 86.5 µM and a Ki of 67 µM.

In experiment [2], `COc1ccc(C2=NOC(c3ccncc3)C2)c(OC)c1` (stereo unspecified) came in with an IC50 of 275 µM and an inhibition constant (Ki) of 150 µM. In addition, the inhibition in experiment [3] turned out to be 11.5%.

Consider `CC(=O)Oc1ccc(C2=NOC(c3ccccc3)C2)c(OC(C)=O)c1` (stereo unspecified), for which the Activity amounted to 23% in the experiment with Rattus norvegicus [1] and 15% in the experiment on Rattus norvegicus [4]. The inhibition in experiment [3] came out at 91.6%.

As to `COc1c(C2=NOC(c3ccccc3)C2)ccc2c1C=CC(C)(C)O2` (stereo unspecified), the inhibition in experiment [3] worked out at 64.2%.

Turning to `COc1ccc(C2CC(c3ccc4occc4c3OC)=NO2)cc1` (stereo unspecified), in experiment [2], the IC50 turned out to be 81 µM. The inhibition in experiment [3] stood at 79.6%.

Turning to `COc1ccc(C2=NOC(c3ccccc3)C2)c(OC(C)=O)c1` (stereo unspecified), the figures for the Activity with Rattus norvegicus [1] and with Rattus norvegicus [4] were 20.5% and 6.96%, respectively. This compound also returned an inhibition in experiment [3] of 28.8%.

Turning to `CN(C)C(=N)NC(=N)N` [METFORMIN], the Activity worked out at 23.6% in the experiment on Rattus norvegicus [1] and 26.5% in the experiment on Rattus norvegicus [4].

In turn, `COc1ccc(C2CC(c3ccc4c(c3OC)C=CC(C)(C)O4)=NO2)cc1` (stereo unspecified) displayed an inhibition in experiment [3] of 57.7%.

On to `COC(=O)C1C(c2ccc(OC)cc2OC)=NOC1c1ccccc1` (stereo unspecified), for which the Activity in the experiment on Rattus norvegicus [1] was 21.6%. Further, in experiment [2], the half-maximal inhibitory concentration (IC50) amounted to 165 µM and the inhibitory constant (Ki) was found to be 135 µM. Further, in experiment [3], the inhibition came out at 46.5%. The Activity in the experiment with Rattus norvegicus [4] is reported as 7.74%.

As for `COc1ccc(C2=NOC(n3ccnc3)C2)c(OC)c1` (stereo unspecified), the results for the Activity with Rattus norvegicus [1] and with Rattus norvegicus [4] were 22.3% and 15%, respectively. The compound also gave a concentration for half-maximal inhibition (IC50) in experiment [2] of 88 µM. In experiment [2], the inhibitory constant (Ki) was 63 µM. This compound also displayed an inhibition in experiment [3] of 79.8%.

In experiment [2], `COc1ccc(C2=NOC(c3ccccn3)C2)c(OC)c1` (stereo unspecified) gave a 50% inhibitory concentration (IC50) of 485 µM and a Ki of 170 µM. In addition, the inhibition in experiment [3] is 9.8%.
